± gives the expanded uncertainty stated by the source.
Legend:
[1] = 101 kPa, Liquid, Pycnometric method
[2] = xn = mol fraction of the nth substance listed; settings: 101 kPa, Liquid, Pycnometric method, x1 = 1

Compound	mass density ([1]; 293.15 K) [kg/m3]	mass density ([1]; 298.15 K) [kg/m3]	mass density ([1]; 303.15 K) [kg/m3]	mass density ([1]; 308.15 K) [kg/m3]	mass density ([1]; 313.15 K) [kg/m3]	mass density ([1]; 318.15 K) [kg/m3]	mass density ([2]; 293.15 K) [kg/m3]	mass density ([2]; 298.15 K) [kg/m3]	mass density ([2]; 303.15 K) [kg/m3]	mass density ([2]; 308.15 K) [kg/m3]	mass density ([2]; 313.15 K) [kg/m3]	mass density ([2]; 318.15 K) [kg/m3]
CC#N [acetonitrile]	782.12 ± 1	776.82 ± 1	771.52 ± 1	766.21 ± 1	760.9 ± 1	755.59 ± 1						
CC#N [acetonitrile] + C=CC(=O)OC							782.12 ± 1	776.82 ± 1	771.52 ± 1	766.21 ± 1	760.9 ± 1	755.59 ± 1
CC#N [acetonitrile] + C=CC(=O)OC(C)(C)C							782.12 ± 1	776.82 ± 1	771.52 ± 1	766.21 ± 1	760.9 ± 1	755.59 ± 1
CC#N [acetonitrile] + C=CC(=O)OCC							782.12 ± 1	776.82 ± 1	771.52 ± 1	766.21 ± 1	760.9 ± 1	755.59 ± 1
CC#N [acetonitrile] + C=CC(=O)OCCCC							782.12 ± 1	776.82 ± 1	771.52 ± 1	766.21 ± 1	760.9 ± 1	755.59 ± 1
C=CC(=O)OC(C)(C)C [tert-butyl acrylate]	884.13 ± 1	879.66 ± 1	875.2 ± 1	870.74 ± 1	866.28 ± 1	861.82 ± 1						
